Results reported in patent US20150335549A1, “Oral Care Composition Containing Ionic Liquids” (COLGATE-PALMOLIVE COMPANY, priority 2012, published 2015).

What was measured:
A. viscosus = assay: Growth inhibition of A. viscosus over 24 hours (bacterial optical density); assay type: cell-based; settings: for Bacterial optical density, 4 h / Bacterial optical density, 22 h / Bacterial optical density, 24 h / Bacterial optical density, 0 h: 500 μl test sample added to 9.5 ml A. viscosus in TSB, 3 replicates; for Bacterial optical density, 0 h: initial O.D.
Description: Bacterial optical density was captured every at 0, 4, 22 and 24 hrs.

[1] = system: biofilm of artificial mouth consortium (A. naeslundii, S. oralis, V. parvula, L. casei, F. nucleatum) of bacteria with S. mutans; assay: In vitro biofilm removal: 3-day old multispecies oral biofilm on saliva-coated 24 well plate, optical density at 610 nm, % reduction from water control; settings: for impact on biofilm removal (in words): ingredient effect in mouthrinse formulations, 3-day old in-vitro oral biofilm; for % removal in High humectant mouthwash / % removal in Low humectant mouthwash: 3-day old biofilm
3-day biofilm = assay: Design-of-experiments statistical analysis / D-Optimal Design prediction of 3-day biofilm removal; settings: glycerin 10%, propylene glycol 5%; for Percent biofilm removal: sorbitol 10%; for Percent biofilm removal if sorbitol at 20%: sorbitol 20%
Description: A statistical design-of-experiments (DOE) approach was used to develop prototype mouth rinse formulations for biofilm removal. An 8 factor design was used. A mouth rinse was used a base formulation (see Table 3). […] The influence of the anti-bacterial agent cetyl pyridinium chloride (CPC) on biofilm removal was also evaluated. The sweetener sucralose and the flavor were at kept constant concentration in all the formulations.

Compound | Bacterial optical density, 4 h (A. viscosus) | Bacterial optical density, 22 h (A. viscosus) | Bacterial optical density, 24 h (A. viscosus) | Bacterial optical density, 0 h (A. viscosus) | impact on biofilm removal (in words) [1] | further results
Choline acetate | 0.2559 | 0.9480 | 1.0385 | 0.1482 |  | 
1-buty1-3-methylimidazolium (BMIM) bromide | 0.2373 | 0.5994 | 0.8244 | 0.1482 |  | 
C[N+](C)(C)CCO.[Cl-] [Choline chloride] | 0.2445 | 1.0236 | 1.0674 | 0.1482 |  | 
OCC(O)CO [glycerin] |  |  |  |  | increases the percent of biofilm removal | 
1,2,4-trimethyl-pyrazolium methylsulfate | 0.1978 | 0.8519 | 1.0042 | 0.1482 |  | 
CC(=O)[O-].CCn1cc[n+](C)c1 [EMIM acetate] | 0.2324 | 0.7942 | 0.8223 | 0.1482 |  | 
OC[C@@H](O)[C@@H](O)[C@H](O)[C@@H](O)CO [sorbitol] |  |  |  |  | increases the percent of biofilm removal | increase in biofilm removal (3-day biofilm; 20% sorbitol in the formulations): ~5%
C[N+](C)(C)CCO.O=C([O-])c1ccccc1O [Choline salicylate, choline salicylate] | 0.1523 | 0.1542 | 0.1539 | 0.1482 |  | Percent biofilm removal (3-day biofilm; choline salicylate 10, TRIS 0): 48%; Percent biofilm removal if sorbitol at 20% (3-day biofilm; choline salicylate 10, TRIS 0): 53%; Percent biofilm removal (3-day biofilm; choline salicylate 20, TRIS 0): 61%; Percent biofilm removal if sorbitol at 20% (3-day biofilm; choline salicylate 20, TRIS 0): 66%; growth inhibition of A. viscosus (in words) (A. viscosus; formulated at 10% concentration in a mouth rinse): greater growth inhibition of A. viscosus than does a mouthrinse which contains 0.075% cetyl pyridinium chloride
C[N+](CCO)(CCO)CCO [Tris-HMAM, tris (2-hydroxyethyl) methylammonium methylsulfate] | 0.2605 | 0.8415 | 0.9087 | 0.1482 | enhances biofilm removal | Percent biofilm removal (3-day biofilm; choline salicylate 0, TRIS 10): 47%; Percent biofilm removal if sorbitol at 20% (3-day biofilm; choline salicylate 0, TRIS 10): 52%; Percent biofilm removal (3-day biofilm; choline salicylate 0, TRIS 20): 60%; Percent biofilm removal if sorbitol at 20% (3-day biofilm; choline salicylate 0, TRIS 20): 65%; % removal in High humectant mouthwash ([1]; 1% Tris-HMAM): 39.0%; % removal in Low humectant mouthwash ([1]; 1% Tris-HMAM): 25.6%; % removal in High humectant mouthwash ([1]; 2.5% Tris-HMAM): 50.5%; % removal in Low humectant mouthwash ([1]; 2.5% Tris-HMAM): 28.2%; % removal in High humectant mouthwash ([1]; 5% Tris-HMAM): 53.9%; % removal in Low humectant mouthwash ([1]; 5% Tris-HMAM): 30.9%; % removal in High humectant mouthwash ([1]; 10% Tris-HMAM): 57.7%; % removal in Low humectant mouthwash ([1]; 10% Tris-HMAM): 46.8%; % removal in High humectant mouthwash ([1]; 20% Tris-HMAM): 71.1%; % removal in Low humectant mouthwash ([1]; 20% Tris-HMAM): 57.3%; % removal in High humectant mouthwash ([1]; 40% Tris-HMAM): 73.2%; % removal in Low humectant mouthwash ([1]; 40% Tris-HMAM): 67.1%
CCOS(=O)(=O)[O-].CCn1cc[n+](C)c1 [EMIM ethylsulfate] | 0.2499 | 0.7514 | 0.7965 | 0.1482 |  | 
CC(O)CO (stereo not drawn) [propylene glycol] |  |  |  |  | increases the percent of biofilm removal | 
1-ethy1-3-methylimidazolium (EMIM) bromide | 0.2216 | 0.7598 | 0.8533 | 0.1482 |  | 
C=CCn1cc[n+](C)c1.[Cl-] [1-ally1-3-methylimidazolium (AMIM) chloride] | 0.2265 | 0.7091 | 0.8440 | 0.1482 |  | 
